Assay results taken from patent US11059778B2, “Cannabinoid receptor CB2 ligand 4-(aminomethyl)-N, N-dialkylanilines” (UNIVERSITY OF PITTSBURGH—OF THE COMMONWEALTH SYSTEM OF …, priority 2015, dated 2021).

Tested on: osteoclast precursor RAW264.7 cells
Assay type: cell-based
Protocol: FIGS. 6A and 6B relate to cAMP Assay Results. Cytotoxicity effects of the synthesized CB2 ligands. FIG. 5A: Cytotoxicity effects of compound 15. FIG. 5B: Cytotoxicity effects of compound 18. Osteoclast precursor RAW264.7 cells (1.5×10^3 cells/well) were seeded on 96-well plates. Cells were incubated with the indicated doses of compounds 15 and 18 for 48 hours. The percentage of cell survival was determined by the MTT assay. Data is the mean±SD of three experiments carried out in duplicate.
The cell-proliferation effect of our CB2 ligands on the osteoclast precursor RAW264.7 cells was assessed using MTT 3-(4,5-dimethylthiazol-2-yl)-2,5-diphenyltetrazolium bromide (Sigma, St. Louis, USA). […] Optical density was read at 540 nm and subtracted from the background at 720 nm. The effect of ligands on cell viability was expressed as percent cell viability, with vehicle-treated control cells set at 100% (Feng, R., et al., KD5170, a novel mercaptoketone-based histone deacetylase inhibitor, exerts antimyeloma effects by DNA damage and mitochondrial signaling. Mol Cancer Ther 2008, 7 (6), 1494-505).
The cytotoxicity assay was carried out to exclude that the high osteoclast formation inhibition effects were not due to the toxicity of the newly discovered compounds. The cytotoxic effects were measured by utilizing the MTT cell-viability assay. […]

Compound | cell viability as compared to the control group (MTT)
CCN(CC)c1ccc(CN(Cc2cc(OC)c(OC)c(OC)c2)S(=O)(=O)c2ccc(C=O)cc2)cc1 [Compound 18, N-(4-(diethylamino)benzyl)-4-formyl-N-(3,4,5-trimethoxybenzyl)benzenesulfonamide] | not significantly altered
CCN(CC)c1ccc(CN(Cc2cc(OC)c(OC)c(OC)c2)S(=O)(=O)/C=C/c2ccccc2)cc1 [Compound 15, (E)-N-(4-(diethylamino)benzyl)-2-phenyl-N-(3,4,5-trimethoxybenzyl)ethene-1-sulfonamidebenzenesulfonamide] | not significantly altered
